This is an account of results in patent US10870647B2, “Imidazopyridine derivative, method for preparing same, and pharmaceutical composition containing same as active ingredient for preventing or treating cancer” (DAEGU-GYEONGBUK MEDICAL INNOVATION FOUNDATION, priority 2016, dated 2020).

Like-named read-outs stand apart in the source and are kept apart here.

What all share (test): Kinase selectivity, scanMAX Kinase assay panel (DiscoverX), % control at 1 uM
Assay type in all cases: binding

Assay [1] deals with T1, scanMAX Kinase assay panel (Homo sapiens, UniProt O14936).
T1 construct: purchased DiscoverX
T1 sequence (O14936 1-926): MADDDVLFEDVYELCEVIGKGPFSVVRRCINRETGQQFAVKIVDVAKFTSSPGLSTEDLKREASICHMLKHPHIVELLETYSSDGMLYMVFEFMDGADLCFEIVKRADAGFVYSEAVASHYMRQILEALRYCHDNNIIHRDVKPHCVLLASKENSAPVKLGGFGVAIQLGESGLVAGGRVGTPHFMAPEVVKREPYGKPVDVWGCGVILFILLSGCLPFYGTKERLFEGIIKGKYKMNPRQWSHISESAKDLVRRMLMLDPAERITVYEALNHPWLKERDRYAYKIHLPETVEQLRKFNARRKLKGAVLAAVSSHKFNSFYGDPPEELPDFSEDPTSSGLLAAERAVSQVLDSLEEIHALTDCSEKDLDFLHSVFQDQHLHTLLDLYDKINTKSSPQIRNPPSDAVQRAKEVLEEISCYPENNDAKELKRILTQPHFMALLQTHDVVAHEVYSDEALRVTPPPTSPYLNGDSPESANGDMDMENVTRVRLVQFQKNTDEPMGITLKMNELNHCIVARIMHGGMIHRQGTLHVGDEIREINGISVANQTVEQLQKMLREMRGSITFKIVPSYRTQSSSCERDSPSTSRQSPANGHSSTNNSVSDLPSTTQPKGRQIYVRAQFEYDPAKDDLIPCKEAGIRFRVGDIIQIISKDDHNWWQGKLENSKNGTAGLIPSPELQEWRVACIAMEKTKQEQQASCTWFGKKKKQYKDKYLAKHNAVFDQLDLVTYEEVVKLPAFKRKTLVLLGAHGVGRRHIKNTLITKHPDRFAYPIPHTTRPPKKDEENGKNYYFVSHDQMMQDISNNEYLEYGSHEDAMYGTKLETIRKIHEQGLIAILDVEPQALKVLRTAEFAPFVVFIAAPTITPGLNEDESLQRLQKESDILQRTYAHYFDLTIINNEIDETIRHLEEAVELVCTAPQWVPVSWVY
To be noted: CASK; 1 uM; read-out: Percent Control (%). An outline of the steps: (§1)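 Each kinase was first exposed to the test compound at 1 uM in DMSO. Signal was then normalised to positive and negative controls to give % control. Finally, any enzyme showing <35% control was judged inhibited.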

The target in assay [2] is T2, scanMAX Kinase assay panel (Homo sapiens, UniProt P00519, T315I).
T2 construct: purchased DiscoverX
To be noted: 1 uM, read-out: Percent Control (%). An outline of the steps:
as §1

The target in assay [3] is T3, scanMAX Kinase assay panel (Homo sapiens, UniProt P00533, T790M).
T3 construct: purchased DiscoverX
T3 sequence (P00533 25-1210 T790M): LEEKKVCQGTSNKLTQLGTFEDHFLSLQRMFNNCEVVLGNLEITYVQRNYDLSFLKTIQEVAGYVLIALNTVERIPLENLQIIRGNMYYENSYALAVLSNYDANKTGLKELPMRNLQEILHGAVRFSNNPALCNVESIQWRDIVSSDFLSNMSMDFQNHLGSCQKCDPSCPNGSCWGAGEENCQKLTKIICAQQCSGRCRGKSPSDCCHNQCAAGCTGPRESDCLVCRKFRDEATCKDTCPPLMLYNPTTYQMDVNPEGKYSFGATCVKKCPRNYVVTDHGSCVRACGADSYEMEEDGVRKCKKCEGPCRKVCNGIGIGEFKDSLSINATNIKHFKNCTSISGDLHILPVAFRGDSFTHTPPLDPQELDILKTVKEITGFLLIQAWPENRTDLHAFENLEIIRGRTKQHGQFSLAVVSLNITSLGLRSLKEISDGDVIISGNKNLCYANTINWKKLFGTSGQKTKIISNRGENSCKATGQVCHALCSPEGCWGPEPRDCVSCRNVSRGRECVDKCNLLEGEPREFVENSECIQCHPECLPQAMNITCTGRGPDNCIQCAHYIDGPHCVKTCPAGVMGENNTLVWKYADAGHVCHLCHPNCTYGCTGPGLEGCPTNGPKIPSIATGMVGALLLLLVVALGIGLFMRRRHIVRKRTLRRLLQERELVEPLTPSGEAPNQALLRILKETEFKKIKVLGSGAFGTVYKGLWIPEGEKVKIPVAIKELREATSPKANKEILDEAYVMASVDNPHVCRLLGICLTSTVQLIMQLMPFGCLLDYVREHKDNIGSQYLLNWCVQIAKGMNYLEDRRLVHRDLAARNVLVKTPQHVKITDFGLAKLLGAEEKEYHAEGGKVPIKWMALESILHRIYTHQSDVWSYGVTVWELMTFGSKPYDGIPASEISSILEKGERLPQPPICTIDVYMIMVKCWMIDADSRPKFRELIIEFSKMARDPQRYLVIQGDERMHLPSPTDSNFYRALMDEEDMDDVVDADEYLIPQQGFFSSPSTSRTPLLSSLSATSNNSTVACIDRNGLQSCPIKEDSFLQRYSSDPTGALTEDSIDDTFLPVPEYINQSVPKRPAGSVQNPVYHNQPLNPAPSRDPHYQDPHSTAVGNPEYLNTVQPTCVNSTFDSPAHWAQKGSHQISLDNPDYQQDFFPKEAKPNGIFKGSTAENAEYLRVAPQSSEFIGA
To be noted: EGFR (T790M); 1 uM; read-out: Percent Control (%). An outline of the steps: as §1

The target of assay [4] is T4, scanMAX Kinase assay panel (Homo sapiens, UniProt P36888, R834Q).
T4 construct: purchased DiscoverX
T4 sequence (P36888 27-993 R834Q): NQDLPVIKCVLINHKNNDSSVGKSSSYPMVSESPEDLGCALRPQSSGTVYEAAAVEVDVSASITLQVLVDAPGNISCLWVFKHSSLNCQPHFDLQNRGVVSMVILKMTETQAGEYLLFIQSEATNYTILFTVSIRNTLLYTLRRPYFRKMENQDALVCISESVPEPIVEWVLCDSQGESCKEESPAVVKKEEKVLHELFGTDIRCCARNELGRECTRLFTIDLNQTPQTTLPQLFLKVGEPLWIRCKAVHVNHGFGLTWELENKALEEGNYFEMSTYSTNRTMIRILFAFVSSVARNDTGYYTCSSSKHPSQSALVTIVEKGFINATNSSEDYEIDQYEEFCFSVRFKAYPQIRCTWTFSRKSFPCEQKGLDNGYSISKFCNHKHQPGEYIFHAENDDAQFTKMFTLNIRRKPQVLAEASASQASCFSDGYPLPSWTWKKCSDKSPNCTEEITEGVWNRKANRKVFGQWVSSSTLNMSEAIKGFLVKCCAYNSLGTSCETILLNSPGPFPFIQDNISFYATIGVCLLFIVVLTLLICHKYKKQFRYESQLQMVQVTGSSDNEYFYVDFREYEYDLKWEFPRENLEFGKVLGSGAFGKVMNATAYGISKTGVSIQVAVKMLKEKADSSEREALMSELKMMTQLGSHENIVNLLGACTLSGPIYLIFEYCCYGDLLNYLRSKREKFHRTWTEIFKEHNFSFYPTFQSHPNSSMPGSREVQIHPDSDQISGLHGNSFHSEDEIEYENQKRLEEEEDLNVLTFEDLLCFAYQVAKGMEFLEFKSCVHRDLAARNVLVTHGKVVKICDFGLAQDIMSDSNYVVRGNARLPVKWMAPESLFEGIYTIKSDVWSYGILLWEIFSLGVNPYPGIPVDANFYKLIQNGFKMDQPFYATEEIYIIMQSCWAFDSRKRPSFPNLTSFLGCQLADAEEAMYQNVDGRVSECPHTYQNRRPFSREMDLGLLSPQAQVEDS
As to conditions: FLT3 (R834Q); 1 uM; read-out: Percent Control (%). An outline of the steps:
as §1

For assay [5], the target named is T5, scanMAX Kinase assay panel (Homo sapiens, UniProt P54764).
T5 construct: purchased DiscoverX
T5 sequence (P54764 20-986): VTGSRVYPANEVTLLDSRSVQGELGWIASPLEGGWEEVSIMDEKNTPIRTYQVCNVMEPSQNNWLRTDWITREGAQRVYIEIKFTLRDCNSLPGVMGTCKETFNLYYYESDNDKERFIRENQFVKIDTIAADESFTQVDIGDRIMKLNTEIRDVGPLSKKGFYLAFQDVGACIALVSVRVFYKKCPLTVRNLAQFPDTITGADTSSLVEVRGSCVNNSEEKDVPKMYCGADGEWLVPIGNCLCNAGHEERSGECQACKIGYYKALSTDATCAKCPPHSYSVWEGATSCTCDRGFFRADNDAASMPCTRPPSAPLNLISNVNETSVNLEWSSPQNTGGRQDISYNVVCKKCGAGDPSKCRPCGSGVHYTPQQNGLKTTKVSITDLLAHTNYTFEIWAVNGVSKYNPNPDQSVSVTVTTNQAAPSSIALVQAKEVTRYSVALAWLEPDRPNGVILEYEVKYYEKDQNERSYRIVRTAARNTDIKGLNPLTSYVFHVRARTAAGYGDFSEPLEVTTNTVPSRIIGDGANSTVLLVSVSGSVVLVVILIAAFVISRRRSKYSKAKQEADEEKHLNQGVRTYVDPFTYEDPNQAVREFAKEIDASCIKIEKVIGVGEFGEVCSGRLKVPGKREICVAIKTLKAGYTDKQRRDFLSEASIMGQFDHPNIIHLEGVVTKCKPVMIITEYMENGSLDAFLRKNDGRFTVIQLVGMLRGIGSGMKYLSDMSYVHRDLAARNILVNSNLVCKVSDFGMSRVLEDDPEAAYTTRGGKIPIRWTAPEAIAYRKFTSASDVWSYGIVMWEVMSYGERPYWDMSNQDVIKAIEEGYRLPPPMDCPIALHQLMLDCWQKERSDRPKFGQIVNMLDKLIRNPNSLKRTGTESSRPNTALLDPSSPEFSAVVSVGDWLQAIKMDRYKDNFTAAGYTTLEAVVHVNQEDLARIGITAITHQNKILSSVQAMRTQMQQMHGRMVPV
As to conditions: EPHA4; 1 uM; read-out: Percent Control (%). In a few lines:
as §1

The target of assay [6] is T6, scanMAX Kinase assay panel (Homo sapiens, UniProt Q13233).
T6 construct: purchased DiscoverX
To be noted: MAP3K1; 1 uM; read-out: Percent Control (%). In a few lines:
as §1

Assay [7] deals with T7, scanMAX Kinase assay panel (Homo sapiens, UniProt Q9BYP7).
T7 construct: purchased DiscoverX
T7 sequence (Q9BYP7 whole entry): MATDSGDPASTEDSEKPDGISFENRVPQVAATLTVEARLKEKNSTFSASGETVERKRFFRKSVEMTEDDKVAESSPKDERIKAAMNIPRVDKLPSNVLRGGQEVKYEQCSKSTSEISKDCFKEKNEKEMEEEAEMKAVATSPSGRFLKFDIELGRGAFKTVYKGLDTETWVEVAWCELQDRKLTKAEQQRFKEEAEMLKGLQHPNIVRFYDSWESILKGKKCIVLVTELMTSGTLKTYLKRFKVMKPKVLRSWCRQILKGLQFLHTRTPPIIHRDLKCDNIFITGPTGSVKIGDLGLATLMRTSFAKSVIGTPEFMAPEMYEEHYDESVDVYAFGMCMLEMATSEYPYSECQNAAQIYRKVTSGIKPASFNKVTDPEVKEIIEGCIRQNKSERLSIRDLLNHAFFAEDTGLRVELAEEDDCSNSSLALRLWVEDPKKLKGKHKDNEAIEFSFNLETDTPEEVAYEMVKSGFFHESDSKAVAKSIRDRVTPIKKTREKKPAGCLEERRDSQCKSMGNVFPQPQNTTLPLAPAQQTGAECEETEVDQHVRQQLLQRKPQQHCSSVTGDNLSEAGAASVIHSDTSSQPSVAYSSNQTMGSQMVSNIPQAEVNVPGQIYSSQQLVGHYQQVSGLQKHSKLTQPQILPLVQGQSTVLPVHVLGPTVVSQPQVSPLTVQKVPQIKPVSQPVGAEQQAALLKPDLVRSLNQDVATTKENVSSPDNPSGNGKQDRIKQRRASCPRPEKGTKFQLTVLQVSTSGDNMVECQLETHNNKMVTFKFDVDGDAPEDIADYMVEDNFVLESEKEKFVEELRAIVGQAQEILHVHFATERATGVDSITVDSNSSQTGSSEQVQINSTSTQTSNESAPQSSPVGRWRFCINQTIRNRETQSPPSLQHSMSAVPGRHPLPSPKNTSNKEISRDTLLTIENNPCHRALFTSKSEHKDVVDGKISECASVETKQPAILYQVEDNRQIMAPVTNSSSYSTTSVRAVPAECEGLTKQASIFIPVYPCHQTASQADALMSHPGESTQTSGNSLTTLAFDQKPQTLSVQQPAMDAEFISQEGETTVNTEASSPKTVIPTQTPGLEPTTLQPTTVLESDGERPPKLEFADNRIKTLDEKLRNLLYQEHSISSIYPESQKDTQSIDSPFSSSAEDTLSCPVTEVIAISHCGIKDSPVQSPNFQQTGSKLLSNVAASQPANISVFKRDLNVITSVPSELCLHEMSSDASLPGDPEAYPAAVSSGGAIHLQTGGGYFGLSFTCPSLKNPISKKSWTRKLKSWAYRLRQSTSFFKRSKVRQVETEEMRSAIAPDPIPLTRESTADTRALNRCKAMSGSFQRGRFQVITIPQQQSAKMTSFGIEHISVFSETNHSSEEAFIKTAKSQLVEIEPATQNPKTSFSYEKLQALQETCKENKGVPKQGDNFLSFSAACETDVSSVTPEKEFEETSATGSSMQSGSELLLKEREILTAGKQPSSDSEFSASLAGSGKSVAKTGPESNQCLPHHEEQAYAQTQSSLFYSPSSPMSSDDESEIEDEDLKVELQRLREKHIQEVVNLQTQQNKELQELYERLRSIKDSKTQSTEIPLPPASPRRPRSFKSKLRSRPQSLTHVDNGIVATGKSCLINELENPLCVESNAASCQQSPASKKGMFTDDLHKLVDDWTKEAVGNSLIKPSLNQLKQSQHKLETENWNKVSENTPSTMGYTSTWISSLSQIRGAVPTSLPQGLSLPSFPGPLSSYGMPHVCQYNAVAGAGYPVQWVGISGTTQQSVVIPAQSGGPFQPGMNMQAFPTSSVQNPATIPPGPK
To be noted: WNK3; 1 uM; read-out: Percent Control (%). In a few lines: as §1

For assay [8], the target named is T8, scanMAX Kinase assay panel (Homo sapiens, UniProt Q9NYY3).
T8 construct: purchased DiscoverX
T8 sequence (Q9NYY3 whole entry): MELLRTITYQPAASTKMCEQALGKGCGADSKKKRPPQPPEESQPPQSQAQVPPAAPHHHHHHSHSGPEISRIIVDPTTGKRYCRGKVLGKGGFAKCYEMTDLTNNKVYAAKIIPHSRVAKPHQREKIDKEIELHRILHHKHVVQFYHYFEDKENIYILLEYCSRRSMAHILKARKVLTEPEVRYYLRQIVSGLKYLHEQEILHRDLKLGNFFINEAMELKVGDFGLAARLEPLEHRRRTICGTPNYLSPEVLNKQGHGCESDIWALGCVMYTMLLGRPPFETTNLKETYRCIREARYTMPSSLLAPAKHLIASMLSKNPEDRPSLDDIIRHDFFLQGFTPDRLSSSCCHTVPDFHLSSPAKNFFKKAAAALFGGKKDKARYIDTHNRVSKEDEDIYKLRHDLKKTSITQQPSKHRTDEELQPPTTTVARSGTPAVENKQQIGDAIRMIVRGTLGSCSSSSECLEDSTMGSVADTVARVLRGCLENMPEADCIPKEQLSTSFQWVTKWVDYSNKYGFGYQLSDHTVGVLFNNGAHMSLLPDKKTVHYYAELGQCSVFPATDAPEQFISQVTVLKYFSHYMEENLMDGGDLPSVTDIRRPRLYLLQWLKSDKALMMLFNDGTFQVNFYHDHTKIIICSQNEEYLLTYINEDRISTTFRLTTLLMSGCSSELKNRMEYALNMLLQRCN
To be noted: PLK2; 1 uM; read-out: Percent Control (%). An outline of the steps:
as §1

As to `Cc1ccc(C(=O)Nc2ccc(CN3CCN(C)CC3)c(C(F)(F)F)c2)cc1C#Cc1cnc2c(Nc3cnn(C)c3)cccn12` [Example 1, 4-methyl-3-((8-((1-methyl-1H-pyrazol-4-yl)amino)imidazo[1,2-a]pyridin-3-yl)ethynyl)-N-(4-((4-methylpiperazin-1-yl)methyl)-3-(trifluoromethyl)phenyl)benzamide], the remaining binding at 1 µM is 74% in assay [1]; 1% in assay [2] (ABL1 (T315I)-nonphosphorylated); 1% in assay [2] (ABL1 (T315I)-phosphorylated); 10% in assay [3]; 3% in assay [4]; 1% in assay [5]. The remaining binding at 1 µM turned out to be 44% in assay [6], 85% in assay [7] and 84% in assay [8].

As to `Cc1cn(-c2cc(NC(=O)c3ccc(C)c(C#Cc4cnc5c(Nc6cnn(C)c6)cccn45)c3)cc(C(F)(F)F)c2)cn1` [Example 12, 4-methyl-N-(3-(4-methyl-1H-imidazol-1-yl)-5-(trifluoromethyl)phenyl)-3-((8-((1-methyl-1H-pyrazol-4-yl)amino)imidazo[1,2-a]pyridin-3-yl)ethynyl)benzamide], the remaining binding at 1 µM was 90% in assay [1]; 15% in assay [2] (ABL1 (T315I)-nonphosphorylated); 15% in assay [2] (ABL1 (T315I)-phosphorylated); 75% in assay [3]; 62% in assay [4]; 24% in assay [5]. Moreover, the results for the remaining binding at 1 µM in assay [6], in assay [7] and in assay [8] were 67%, 100% and 100%, respectively.

For `Cc1ccc(NC(=O)C2(C(=O)Nc3ccc(F)cc3)CC2)cc1C#Cc1cnc2c(Nc3cnn(C(C)C)c3)cccn12` [Example 78], the remaining binding at 1 µM in assay [1] came out at 100%; in assay [2] (ABL1 (T315I)-nonphosphorylated), 100%; in assay [2] (ABL1 (T315I)-phosphorylated), 100%; in assay [3], 100%; in assay [4], 100%; in assay [5], 91%. For the same compound, the remaining binding at 1 µM in assay [6] stood at 94%; in assay [7], 100%; in assay [8], 62%.
